Reference: paper PMC5526877, “Structure of Chorismate Mutase-like Domain of DAHPS from Bacillus subtilis Complexed with Novel Inhibitor Reveals Conformational Plasticity of Active Site” (Scientific Reports, 2017)
Counter-ions that a name gives are not always drawn.

Legend:
[1] = molecular target: T1, BsCM_2 (chorismate mutase type II N-terminal domain of DAHPS) (Bacillus subtilis, UniProt P39912); assay: co-crystal structure at […] Å and ITC; also competitive enzyme inhibition (Ki […], IC50 […]); assay type: binding; set-up: gene aroA; N-terminal chorismate mutase-like domain of DAHPS (306 bp fragment), homodimer; conditions: read-out: Dissociation constant, K D
[2] = molecular target: T1, BsCM_2 (chorismate mutase type II N-terminal domain of DAHPS); assay: crystal structure at […] Å (citrate from crystallization buffer) and ITC; assay type: binding; set-up: gene aroA; N-terminal chorismate mutase-like domain of DAHPS (306 bp fragment), homodimer
[3] = molecular target: T1, BsCM_2 (chorismate mutase type II N-terminal domain of DAHPS); assay: ITC; also Michaelis-Menten kinetics (Km […]); assay type: binding; set-up: gene aroA; N-terminal chorismate mutase-like domain of DAHPS (306 bp fragment); conditions: read-out: Dissociation constant, K D
[4] = molecular target: the molecule itself; assay: crystal structure; BsCM_2 co-crystallised with chlorogenic acid (1.8 Å, P21, two monomers per asymmetric unit) and with citrate from the buffer (1.9 Å, P1, four monomers per asymmetric unit); sitting drop, 1 M ammonium sulphate, 0.1 M potassium sodium tartrate, 0.1 M sodium citrate pH 5.8, 20 °C; dimer interface analysed with PISA

O=C(/C=C/c1ccc(O)c(O)c1)O[C@@H]1C[C@](O)(C(=O)O)C[C@@H](O)[C@H]1O [CGA, chlorogenic acid]
Kd [1]: 480 µM

O=C(O)CC(O)(CC(=O)O)C(=O)O [CIT, citrate]
Kd [2]: 600 µM

C=C(O[C@@H]1C=C(C(=O)O)C=C[C@H]1O)C(=O)O [chorismate]
Kd [3]: 725 µM

B1: Chorismate mutase type II-like N-terminal domain (AroQ class) of 3-deoxy-D-arabino-heptulosonate-7-phosphate synthase (DAHPS) from Bacillus subtilis (domain or fragment, Bacillus subtilis strain 3256)
chain: MSNTELELLRQKADELNLQILKLINERGNVVKEIGKAKEAQGVNRFDPVRERTMLNNIIENNDGPFENSTIQHIFKEIFKAGLELQEEDH
notes: the forward primer encodes MSNTEL from the start codon, the reverse primer encodes ...QEEDH followed by a stop codon; residues 1-88 are spoken of in the structures; strain 3256 may differ; also called BsCM_2; CM_2 domain; source: E. coli BL21 (DE3), pET28c/BsCM_2, purified (HisTrap Ni-NTA, Superdex 75 SEC)
stoichiometry N [4]: 2
